Source: patent US20260131033A1, “RADIOLABELED FRUCTOSE DERIVATIVES FOR MEDICAL IMAGING” (Yellowbird Diagnostics Inc., priority 2023, published 2026)

Key:
[1] = system: heterotopic HepG2 xenograft mouse model; experiment: Comparative PET/CT biodistribution in heterotopic HepG2 xenograft mouse model; type: in vivo
Experimental: After the confirmation of cell uptake and intracellular trapping of [U^13C]4-FDF, and the successful production of the radiofluorinated analog, the biodistribution of [^18F]4-FDF was evaluated in a heterotopic HepG2 xenograft mouse model and compared to the biodistribution of [^18F]6-FDF and [^18F]FDG. PET/CT images shown are the summed images from 20-45 min after intravenous injection of (FIG. 4A) [^18F]4-FDF, (FIG. 4B) [^18F]6-FDF, or (FIG. 4C) [^18F]FDG. Sagittal, coronal, and maximum intensity projection (MIP) are shown, in addition to axial sections at the level of the brain, heart, liver/kidneys, and hips. […] Purple represents an increase in AUC and blue represents a decrease in AUC. The values are normalized fold-change in AUC.
Eight-week-old female nu/nu mice were inoculated with 10×10^6 HepG2 cells suspended in 50% Matrigel:DMEM subcutaneously under the left shoulder. Within 3-weeks of implantation, mice were imaged by PET/CT.
PET/CT Imaging. PET/CT imaging was carried out on a Bruker Si78PET/CT scanner with a 4-position hotel having adjustable isoflurane and respiratory monitoring for each position (Bruker USA). Tail veins were catheterized, and an anatomical CT was acquired over the whole of the mouse bodies using the “rat” settings. PET acquisition was started just prior to a bolus i.v. injection of approximately 200 μCi of radiotracer. Dynamic scans were acquired in list mode format over 45 min and sorted into 16×0.5-mm sinogram bins for image reconstruction (4×15 s, 4×60 s and 8×300 s). Iterative reconstruction was performed using 3D ordered-subsets expectation maximization (3D-OSEM) followed by fast maximum a posteriori (fastMAP) using Paravision 360 software v.3.4 (Bruker, USA). Four-mouse images were split into individual mice, and the bed was removed using PMOD v (Bruker, USA). VivoQuant v.2022 (InviCRO) was used for visualization of radioradiotracer uptake in tissues, to define the three-dimensional (3D) volumes of interest (VOI) and for 3D-visualisation to create volume rendering technique images. The count densities were averaged for all volumes of interest at each time point to obtain a time versus activity curve (TAC). Tumor and tissue TACs were normalized to injected dose, measured by a CRC-15 PET dose calibrator (Capintec, Inc., NJ, USA), and expressed as percentage injected dose per cubic centimeter of tissue (% ID/cc).

[2] = Time-course PET/CT biodistribution and TACs in fed or fasted mice; settings: Balb/C mice freely fed or overnight fasted, ~7.4 MBq i.v., 60 min PET/CT
Experimental: Animals received ˜7.4 MBq i.v. immediately upon the initiation of image acquisition, which continued for 60 min. The dynamic scan was binned according to the times indicated.
Solid line=mean; Shaded region=standard deviation. Regions of interest were drawn over the tissues of interest, and the activity within that region of interest of known volume were plotted over the timecourse of the 60 min PET/CT acquisition.

[3] = system: HepG2 human hepatocarcinoma cells; experiment: Tracing of [U^13C]-fructose analog metabolism in vitro by LC-MS; type: cell-based; settings: for metabolic fate / main ^13C-labelled cellular product / metabolism through the polyol pathway: 25 mM ^13C-labelled analog; for formation of glucose-6-phosphate: polyol pathway
Experimental: In order to characterize the structure-activity effect of fructose deoxyfluorination on metabolic flux, the metabolism of isotopically labelled [U^13C]-fructose, and [U^13C]-1-, [U^13C]-6-, and [U^13C]-4-FDF deoxyfluorinated fructose analogs was evaluated in vitro in HepG2 human hepatocarcinoma cells by mass spectrometry (FIGS. 3A-3G). HepG2 were chosen as a model cell line due to a recent report by Tee et al. outlining their propensity for fructolysis (Tee, S. S. et al., 2022). [U^13C]-1- and [U^13C]-6-FDF were synthesized according to previously published methods (Haradahira, T. et al., 1995; Wuest, M. et al., 2011), and [U^13C]-4-FDF was synthesized as described hereinabove (Scheme 3).
Tracing of [U^13C]-fructose metabolism in vitro. Human hepatocellular carcinoma cells (HepG2) were grown in Dulbecco's modified Eagle medium (DMEM) supplemented with 10% heat-inactivated fetal bovine serum (FBS) and 1% penicillin-streptomycin (P/S) until 80% confluent under cell culture conditions (37° C., 5% CO2, humidified), at which point they were passaged. Cells were passaged three times before being seeded in to a 6-well plate and grown until 80% confluent. Supplemented media was aspirated and replaced with lactated Ringer's buffer (LRB) alone or containing 25 mM [U^13C]-1-FDF, [U^13C]-4-FDF, or [U^13C]-6-FDF. Cells were incubated under cell culture conditions for 0, 15, 30, or 60 min. Following incubation, the plates were placed on ice and wells were aspirated. Wells were washed three times with ice-cold ammonium formate buffer (150 mM, pH 7.4) to remove unbound probe. A chilled (−20° C.) solution of 1:1 methanol:water was added to the wells and cells were scraped off of the wells into the solution. This solution was collected into bead-beater tubes containing 6 beads and stored at −80° C. until further analysis was performed.
Levels of fructose metabolites were assessed by liquid chromatography mass spectrometry (LC-MS). Sample temperature was maintained on ice or dry ice where possible, and all solvents were MS grade and pre-equilibrated to −20° C.
Metabolite extraction. Cell pellets were collected to a pre-chilled 2 mL tube containing 6 washed ceramic beads (1.4 mm). 380 μl of methanol:water (1:1) was added in the tube and kept in −80° C. until the day of metabolite extraction. On the day of extraction, samples were vortexed for 10 s and cell lysis was done by beating for 60 s at 2000 rpm (bead beating was done twice) after adding 220 μL of acetonitrile. Samples were then incubated with a 2:1 dichloromethane:water solution on ice for 10 minutes. The polar and non-polar phases were separated by centrifugation at 4000 g for 10 minutes at 1° C. The resulting upper phase, consisting of polar metabolites was dried with a refrigerated (−4° C.) centrivap concentrator (Labconco) and stored at −80° C. before LC-MS analyses.
LC-MS metabolite quantification. Samples to be injected in -ESI were re-suspended with 75% acetonitrile, cleared by centrifugation and run on an Agilent 6545B Q-TOF mass spectrometer equipped with a 1290 Infinity II ultra-high performance LC (Agilent Technologies). Continuous internal mass calibration was executed using signals from purine [12,000 full width at half maximum (FWHM) resolution] and hexakis (1H,1H,3H-tetrafluoropropoxy) phosphazine (24,000 FWHM resolution). All study samples were randomized before analysis and run using both high and low pH hydrophilic interaction chromatography (HILIC-Z) in negative ionization mode. HILIC separation was obtained using the Poroshell 120 HILIC-Z column (2.1 100 mm, […]; Agilent) and corresponding guard column. The chromatographic conditions and mass spectrometry acquisition parameters were as described elsewhere (Zhu, Z. et al., 2023). Metabolite identification was confirmed by exact mass, retention time and subsequent MS/MS fragmentation for where standards are available. For the fluoro-fructose labelled metabolites, exact mass and MS/MS was considered for metabolite confirmation. […]

[4] = Wuest, M. et al., 2018; cited from earlier work

## [^18F]-2-fluoro-2-deoxy-D-glucose [[^18F]FDG]
[1]; brain, normalized to AUC of [^18F]4-FDF
  area under the time activity curve (AUC) in brain, fold greater than [^18F]4-FDF: 6.01 fold
[1]; healthy brain and heart, PET/CT
  uptake in brain and heart in the absence of disease: high
[1]; heart, normalized to AUC of [^18F]4-FDF
  area under the time activity curve (AUC) in heart, fold greater than [^18F]4-FDF: 5.29 fold

## O=C(CO)[C@@H](O)[C@@H]([18F])[C@H](O)CO [[^18F]-4-fluoro-4-deoxytagatose]
[2]
  bone uptake: significant bone uptake that is retained overtime
  route of clearance: main route of clearance is the kidney

## O=C(CO)[C@@H](O)[C@H](O)[C@H](O)CF [[U^13C]-6-FDF, [U^13C]-6-fluoro-6-deoxyfructose]
[3]; mass spectrometry
  metabolic fate / main ^13C-labelled cellular product: substantial amount of [U^13C]-deoxyfluorolactate production
  metabolism through the polyol pathway: capable of proceeding through the polyol pathway
  metabolic trapping in the cell: neither [U^13C]-1- (FIG. 3E) nor [U^13C]-6-FDF are metabolically trapped
[3]
  formation of glucose-6-phosphate: did not form detectable amounts of glucose-6-phosphate

## O=[13C]([13CH2]O)[13C@@H](O)[13C@H](O)[13C@H](O)[13CH2]O [[U^13C]-fructose]
[3]; mass spectrometry
  metabolic fate / main ^13C-labelled cellular product: metabolized as expected through both fructolytic and polyol pathways

## O=C(CO)[C@@H](O)[C@H](F)[C@H](O)CO [[U^13C]-4-FDF, [U^13C]-4-fluoro-4-deoxyfructose]
[3]; mass spectrometry
  metabolic fate / main ^13C-labelled cellular product: metabolism halted at [U^13C]-4-fluorodeoxy-1-phosphate
  metabolism through the polyol pathway: capable of proceeding through the polyol pathway
  accumulation of fluorodeoxyfructose-1,6-bisphosphate: accumulation of [U^13C]-4-fluorodeoxyfructose-1,6-bisphophate
  metabolic trapping in the cell: unique ability to be trapped within cells
[3]; over 60 min of incubation
  time course of metabolite generation: steady-state accumulation of [U^13C]-4-fluorodeoxyfructose-1-phosphate and [U^13C]-4-fluorodeoxyfructose-1,6-bisphosphate, and increase in [U^13C]-4-fluorodeoxysorbitol
[3]
  formation of glucose-6-phosphate: did not form detectable amounts of glucose-6-phosphate

## O=C(CF)[C@@H](O)[C@H](O)[C@H](O)CO [[U^13C]-1-FDF, [U^13C]-1-fluoro-1-deoxyfructose]
[3]; mass spectrometry
  metabolic fate / main ^13C-labelled cellular product: majority of the ^13C-labelled cellular product being [U^13C]-deoxyfluorolactate
  metabolism through the polyol pathway: limited metabolism through the polyol pathway
  metabolic trapping in the cell: neither [U^13C]-1- (FIG. 3E) nor [U^13C]-6-FDF are metabolically trapped

## O=C(CO)[C@@H](O)[C@H](O)[C@H](O)C[18F] [[^18F]6-FDF, [^18F]-6-fluoro-6-deoxyfructose]
[1]; HepG2 xenograft mice, PET/CT
  bone uptake: > 7 % ID/g
[1]; HepG2 xenograft mice, TAC
  bone uptake over time: continued to increase overtime
[1]; HepG2 xenograft mice, intravenous injection, PET/CT
  tumor accumulation / pattern of radiotracer retention: similarly observed
[1]; HepG2 xenograft mice, normalized to [^18F]4-FDF
  bone uptake, fold higher than [^18F]4-FDF: 3.69 fold

## O=C(CF)[C@@H](O)[C@H](O)[C@H](O)CO [[^18F]1-FDF, 1-deoxy-1-fluoro-fructose]
[4]
  retention in cells in vitro and in vivo: poorly retained in cells in vitro and in vivo
